The text below walks through data of ChEMBL document CHEMBL1140790, “Determination of absolute stereochemistry, total synthesis, and evaluation of peptides from the myxomycete Physarum melleum” (Bioorg Med Chem Lett, 2008).

A short description of this assay: Inhibition of Wnt signal activity by luciferase superTOP-Flash gene assay.

Active and inactive are the calls of the source. The calls are words filed in the database; no cut-off is given here.

As to `COC(=O)C[C@H](O)[C@H](Cc1ccc(O)cc1)NC(=O)CNC(=O)[C@H](NC(=O)c1ccc(OC)cc1)[C@@H](C)O`, the result was Active.
Turning to `COC(=O)C[C@H](O)[C@H](Cc1ccc(O)cc1)NC(=O)CNC(=O)[C@@H](NC(=O)c1ccc(OC)cc1)[C@@H](C)O`, the result was inactive.
